Test results taken from patent US20080269142A1, “ENDOGENOUS THIADIAZABICYCLO GLUTATHIONE-ADDUCT” (priority 2006, published 2008).

Tested on: EA.hy 926 endothelial cells
Test: Apoptosis (morphological changes) in treated EA.hy 926 endothelial cells
Assay type: cell-based
Method: EA.hy 926 endothelial cells were incubated in DMEM (10 mL) containing 10% FBS, 100 unit/mL of penicillin, and 100 μg/mL of streptomycin at 37° C. in an atmosphere of 5% CO2. After the cells reached 70-80% confluence (approximately 2×10^6 cells), the complete DMEM was removed and replaced with FBS-free DMEM for treatment with dimethyl-TOG.
As the result, there was little accumulation of TOG in the cells. […] Therefore, high doses of dimethyl-TOG (100 μM and 200 μM) were chosen to detect an apoptosis-inducing effect. When the cells were treated with dimethyl-TOG, typical morphological changes of apoptosis, such as detachment from the substrate, shrinkage, and membrane blebbing were observed as early as 1 h after treatment.
GGT mediates the first step of hydrolysis of extracellular GSH. The hydrolyzed amino acids will be transported back to the cells for GSH biosynthesis (4). Without GGT activity, there would be accumulation of GSH in the extracellular medium and depletion of intracellular GSH.

With `CCCCCC(=O)/C=C/C=O` [ONE, 4-oxo-2(E)-nonenal] the “apoptosis after 8 h of incubation” value (10 μM ONE, 8 h) was “most of the cells treated with 10 μM ONE went to complete apoptosis” and the apoptosis-inducing effect (ONE 1 μM alone) was “no apoptosis-inducing effect”.
